What was measured:
mouse p38α mRNA = test: Mouse p38α mRNA levels in bEND.3 cells, quantitative real-time PCR; type: cell-based; design: % Inhib. mouse p38α: concentration or dose not given beside the values
How it was run: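 Mouse bEND.3 cells, antisense oligonucleotide-treated; p38α mRNA measured by one-step real-time RT-PCR (RT 30 min at 48 °C, then 40 cycles) with a FAM/TAMRA probe. Levels normalized to GAPDH or RiboGreen total RNA, and percent inhibition derived from standard curves of untreated-control mRNA.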

p38α mRNA = test: Reduction of p38α mRNA in fibroblasts; type: cell-based; conditions: read-out: IC50 for reducing p38α mRNA
p38α = p38α knock-down in mouse macrophage cell line RAW264.7, Western blotting; type: cell-based
[1] = system: ovalbumin (OVA)-induced airway hyperresponsiveness; test: Mouse model of allergic inflammation (OVA), intratracheal oligonucleotide administration; type: in vivo; conditions: OVA mice
Method: In the mouse model of allergic inflammation, mice were sensitized and challenged with aerosolized chicken ovalbumin (OVA). Airway responsiveness was assessed by inducing airflow obstruction with a methacholine aerosol using a noninvasive method. This methodology utilized unrestrained conscious mice that are placed into the main chamber of a plthysmograph (Buxco Electronics, Inc., Troy, N.Y.). Pressure differences between this chamber and a reference chamber were used to extrapolate minute volume, breathing frequency and enhanced pause (Penh). […] This parameter closely correlates with lung resistance as measured by traditional invasive techniques using ventilated animals (Hamelmann et al., 1997). […]
For intratracheal administration of ISIS 101757, female Balb/c mice (Charles Rivers Laboratory, Taconic Farms, N.Y.) were maintained in micro-isolator cages housed in a specific pathogen-free (SPF) facility. […] Animals were analyzed about 24 hours following the last nebulization using the Buxco electronics Biosystem. Lung function (Penh), lung histology (cell infiltration and mucus production), target mRNA reduction in the lung, inflammation (BAL cell type & number, cytokine levels), spleen weight and serum AST/ALT were determined. […]

[2] = mouse, in vivo
Method: For the aerosol studies, the protocol described above was slightly modified. Male Balb/c mice were injected IP with OVA (20 μg) in aluminum hydroxide on days 0 and 14. Aerosol dosing was performed with nebulized sterile saline, antisense oligonucleotide or mismatched control oligonucleotide using 25, 125 and 250 μg/ml solutions (5 mg/kg) for 30 min. on days 14-20 in a closed chamber. Aerosol lung challenge was carried out with nebulized saline or 1% OVA for 20 min. on days 18, 19 and 20. BAL fluid was collected at 24 hr post-last lung challenge (cell differentials) or at 2-12 h post-challenge (cytokine analysis). AHR was measured 24 hours after OVA challenge. Mice were exposed to aerosolized methacholine 24 hr post-last lung challenge from 2-80 mg/ml for 3 min. until a 200% increase in Penh was achieved.

## ISIS 101757: antisense oligonucleotide targeted to mouse p38α, SEQ ID NO 177; 2′-MOE gapmer, all phosphorothioate linkages (antisense AGGTGCTCAGGACTCCATTT; all phosphorothioate, sugars by position and methylation of C not given here; 2'-MOE gapmer)
Mouse p38α mRNA; bEND.3 cells, mRNA by quantitative real-time PCR, average of two experiments
  % Inhib. mouse p38α: 88%
Mouse p38α mRNA; endothelial cells, read-out: IC50 for reducing p38α mRNA
  IC50: < 50 nM
p38α mRNA
  IC50: ~250 nM
p38α
  p38α knock-down effect: confirmed
[1]
  Penh response to methacholine (50 mg/ml) challenge: dose-dependent inhibition
[2]
  Oligonucleotide levels in lung tissue sufficient to achieve the pharmacological effects: up to 1 μg/g

From patent US20040171566A1, “Antisense modulation of p38 mitogen activated protein kinase expression” (priority 1999, published 2004)
